The values that follow come from patent US10772893B2, “2-(morpholin-4-yl)-1,7-naphthyridines” (BAYER PHARMA AKTIENGESELLSCHAFT, priority 2014, dated 2020).

Counter-ions that a name gives are not always drawn.

Holding throughout (experiment): Proliferation assay, crystal violet staining
The subject of experiment [1] is Caco-2 cells. It counts as cell-based. The settings on record: Homo sapiens, Caco-2, 96 h, 4 days incubation, read-out: Inhibition of Caco-2 cell proliferation.
In experiment [2] the test system is HeLa-MaTu-ADR cells. It is filed as cell-based. The settings on record: Homo sapiens, 96 h, 4 days incubation, read-out: Inhibition of HeLa-MaTu-ADR cell proliferation.
Experiment [3] concerns DU145 cells. The note with it: Homo sapiens, DU-145, 96 h, read-out: Inhibition of DU145 cell proliferation, DU145 cells, 4 days incubation.
Experiment [4] has as its system NCI-H460 cells. The note with it: Homo sapiens, NCI-H460, 96 h, read-out: Inhibition of NCI-H460 cell proliferation, NCI-H460 cells, 4 days incubation.
The subject of experiment [5] is HeLa cells. The note with it: Homo sapiens, 96 h, read-out: Inhibition of HeLa cell proliferation, HeLa cells, 4 days incubation.

For the compound `CN=S(C)(=O)c1ccc(-c2cc(N3CCOCC3)nc3c(-c4ccn[nH]4)nccc23)cc1` (centres unmarked) [Example 5, 4-(4-(N,S-dimethylsulfonimidoyl)phenyl)-2-[morpholin-4-yl]-8-(1H-pyrazol-5-yl)-1,7-naphthyridine], the IC50 was 2.19 µM in experiment [1], over 3 µM in experiment [2], 0.368 µM in experiment [3] and 0.641 µM in experiment [4].
With `CS(=O)(=O)c1ccc(-c2cc(N3CCOCC3)nc3c(-c4cc[nH]n4)nccc23)cc1` [Example 7, 4-(4-methanesulphonylphenyl)-2-(morpholin-4-yl)-8-(1H-pyrazol-3-yl)-[1,7]naphthyridine], the IC50 in experiment [1] stood at 5.95 µM; in experiment [5] it was 1.33 µM; in experiment [3] it was 1.59 µM; in experiment [4], 1.02 µM.
Turning to `CS(=O)(=O)c1ccccc1-c1cc(N2CCOCC2)nc2c(-c3cc[nH]n3)nccc12` [Example 8, 4-(2-methanesulphonylphenyl)-2-(morpholin-4-yl)-8-(1H-pyrazol-3-yl)-[1,7]naphthyridine Hydrochloride], the IC50 in experiment [1] was over 3 µM; in experiment [5] it was 2.26 µM; in experiment [2] it was over 3 µM; in experiment [3], 2.05 µM; in experiment [4] it was 0.909 µM.
`C=C(C)c1cc(N2CCOCC2)nc2c(-c3cc[nH]n3)nccc12` [Example 10, 4-Isopropenyl-2-(morpholin-4-yl)-8-(1H-pyrazol-3-yl)-[1,7]naphthyridine]: the IC50 was 1.46 µM in experiment [1]; 0.496 µM in experiment [5]; 1.3 µM in experiment [2]; 0.827 µM in experiment [3]; 0.447 µM in experiment [4].
As for `CS(=O)(=O)c1ccc(-c2cc(N3CCOCC3)nc3c(-c4ccn[nH]4)nccc23)c(F)c1` [Example 24], the IC50 in experiment [1] came to 0.833 µM; in experiment [2], 3.41 µM; in experiment [3], 1.35 µM; in experiment [4], 0.378 µM.
In the same order, the values of `C[C@@H]1COCCN1c1cc(S(C)(=O)=O)c2ccnc(-c3ccn[nH]3)c2n1` [Example 33, 2-[(3R)-3-methylmorpholin-4-yl]-4-(methylsulfonyl)-8-(1H-pyrazol-5-yl)-1,7-naphthyridine] are 0.653 µM, over 3 µM, 1.01 µM and 0.269 µM.
Regarding `CS(=O)(=O)C1(c2cc(N3CCOCC3)nc3c(-c4ccn[nH]4)nccc23)CC1` [Example 39, 4-(1-methanesulphonycyclopropyl)-2-(morpholin-4-yl)-8-(2H-pyrazol-3-yl)-[1,7]naphthyridine], the IC50 in experiment [5] came out at 1.05 µM; in experiment [3], 0.837 µM; in experiment [4], 0.4 µM.
`C[C@@H]1COCCN1c1cc(OCCCCN)c2ccnc(-c3ccn[nH]3)c2n1` [Example 57, 4-({2-[(3R)-3-methylmorpholin-4-yl]-8-(1H-pyrazol-5-yl)-1,7-naphthyridin-4-yl}oxy)butan-1-amine]: the IC50 in experiment [3] came to 1.56 µM; in experiment [4] it was 0.374 µM.
Take `Clc1cc(N2CCOCC2)nc2c(-c3cc[nH]n3)nccc12` [Example 62, 4-chloro-2-morpholin-4-yl-8-(1H-pyrazol-3-yl)-[1,7]naphthyridine]: the results for the IC50 in experiment [5] and in experiment [4] were 0.164 µM and over 3 µM, respectively.
For `CSc1cc(N2CCOC[C@H]2C)nc2c(-c3ccn[nH]3)nccc12` [Example 63, 2-[(3R)-3-methylmorpholin-4-yl]-4-(methylsulfanyl)-8-(1H-pyrazol-5-yl)-1,7-naphthyridine], the IC50 in experiment [1] turned out to be 1.54 µM; in experiment [2], 1.53 µM; in experiment [3] it was 0.915 µM; in experiment [4], 0.308 µM.
As for `C[C@@H]1COCCN1c1cc(N=S2(=O)CCOCC2)c2ccnc(-c3ccn[nH]3)c2n1` [Example 64, N-{2-[(3R)-3-methylmorpholin-4-yl]-8-(1H-pyrazol-5-yl)-1,7-naphthyridin-4-yl}-1,4λ^4-oxathian-4-imine 4-oxide], the IC50 was 0.844 µM in experiment [1], 1.17 µM in experiment [2], 0.506 µM in experiment [3] and 0.0923 µM in experiment [4].
For the compound `C[C@@H]1COCCN1c1cc(N2CCNCC2)c2ccnc(-c3ccn[nH]3)c2n1` [Example 66, 2-[(3R)-3-methylmorpholin-4-yl]-4-(piperazin-1-yl)-8-(1H-pyrazol-5-yl)-1,7-naphthyridine], the IC50 in experiment [1] is 3.35 µM; in experiment [4], 0.127 µM.
With `c1cc(-c2nccc3c(N4CCn5ccnc5C4)cc(N4CCOCC4)nc23)[nH]n1` [Example 169, 4-(5,6-dihydroimidazo[1,2-a]pyrazin-7(8H)-yl)-2-(morpholin-4-yl)-8-(1H-pyrazol-5-yl)-1,7-naphthyridine], the IC50 is over 3 µM in experiment [1], 0.731 µM in experiment [5] and over 3 µM in experiment [2].
In the case of `CS(=O)(=O)Nc1ccc(-c2cc(N3CCOCC3)nc3c(-c4ccn[nH]4)nccc23)cc1` [Example 323, N-{4-[2-(morpholin-4-yl)-8-(1H-pyrazol-5-yl)-1,7-naphthyridin-4-yl]phenyl}methanesulfonamide], in experiment [5], the IC50 came out at 2.22 µM.
On the same count and under the same terms, with `CN(C)C(=O)c1ccc(-c2cc(N3CCOCC3)nc3c(-c4ccn[nH]4)nccc23)cc1` [Example 324, N,N-dimethyl-4-[2-(morpholin-4-yl)-8-(1H-pyrazol-5-yl)-1,7-naphthyridin-4-yl]benzamide] the figure was 2.42 µM; with `C/C=C/c1cc(N2CCOCC2)nc2c(-c3ccn[nH]3)nccc12` [Example 325, 2-(morpholin-4-yl)-4-[(1E)-prop-1-en-1-yl]-8-(1H-pyrazol-5-yl)-1,7-naphthyridine], 0.999 µM; with `Oc1ccc(-c2cc(N3CCOCC3)nc3c(-c4ccn[nH]4)nccc23)cc1` [Example 326, 4-[2-(morpholin-4-yl)-8-(1H-pyrazol-5-yl)-1,7-naphthyridin-4-yl]phenol], 2.92 µM.
Same read-out and setting: the figure for `Fc1ccccc1-c1cc(N2CCOCC2)nc2c(-c3ccn[nH]3)nccc12` [Example 327, 4-(2-fluorophenyl)-2-(morpholin-4-yl)-8-(1H-pyrazol-5-yl)-1,7-naphthyridine] is 1.89 µM.
On the same count and under the same terms, with `O=C(NC1CC1)c1cccc(-c2cc(N3CCOCC3)nc3c(-c4ccn[nH]4)nccc23)c1` [Example 330, N-cyclopropyl-3-[2-(morpholin-4-yl)-8-(1H-pyrazol-5-yl)-1,7-naphthyridin-4-yl]benzamide] the figure was over 3 µM.
Take `COc1ccc(-c2cc(N3CCOCC3)nc3c(-c4ccn[nH]4)nccc23)c(OC)c1` [Example 332, 4-(2,4-dimethoxyphenyl)-2-(morpholin-4-yl)-8-(1H-pyrazol-5-yl)-1,7-naphthyridine]: in experiment [5], the IC50 is over 3 µM.
As for `Clc1ccccc1-c1cc(N2CCOCC2)nc2c(-c3ccn[nH]3)nccc12` [Example 333, 4-(2-chlorophenyl)-2-(morpholin-4-yl)-8-(1H-pyrazol-5-yl)-1,7-naphthyridine], the IC50 in experiment [5] is over 3 µM.
Still for that read-out and setting: with `Cc1ccc(C)c(-c2cc(N3CCOCC3)nc3c(-c4ccn[nH]4)nccc23)c1` [Example 334, 4-(2,5-dimethylphenyl)-2-(morpholin-4-yl)-8-(1H-pyrazol-5-yl)-1,7-naphthyridine] the figure was over 3 µM; with `Nc1cccc(-c2cc(N3CCOCC3)nc3c(-c4ccn[nH]4)nccc23)c1` [Example 335, 3-[2-(morpholin-4-yl)-8-(1H-pyrazol-5-yl)-1,7-naphthyridin-4-yl]aniline], 2.96 µM; with `Oc1cccc(-c2cc(N3CCOCC3)nc3c(-c4ccn[nH]4)nccc23)c1` [Example 337, 3-[2-(morpholin-4-yl)-8-(1H-pyrazol-5-yl)-1,7-naphthyridin-4-yl]phenol], 1.71 µM.
Consider `COc1ccc(F)cc1-c1cc(N2CCOCC2)nc2c(-c3ccn[nH]3)nccc12` [Example 339, 4-(5-fluoro-2-methoxyphenyl)-2-(morpholin-4-yl)-8-(1H-pyrazol-5-yl)-1,7-naphthyridine], for which the IC50 in experiment [5] is over 3 µM.
In the case of `Fc1ccc(-c2cc(N3CCOCC3)nc3c(-c4ccn[nH]4)nccc23)c(F)c1` [Example 340, 4-(2,4-difluorophenyl)-2-(morpholin-4-yl)-8-(1H-pyrazol-5-yl)-1,7-naphthyridine], in experiment [5], the IC50 worked out at 2.95 µM.
Turning to `Fc1cccc(-c2cc(N3CCOCC3)nc3c(-c4ccn[nH]4)nccc23)c1F` [Example 341, 4-(2,3-difluorophenyl)-2-(morpholin-4-yl)-8-(1H-pyrazol-5-yl)-1,7-naphthyridine], the IC50 in experiment [5] was found to be 1.59 µM.
Same read-out and setting: with `Nc1ccccc1-c1cc(N2CCOCC2)nc2c(-c3ccn[nH]3)nccc12` [Example 343, 2-[2-(morpholin-4-yl)-8-(1H-pyrazol-5-yl)-1,7-naphthyridin-4-yl]aniline] the figure was 1.71 µM; with `c1ccc(-c2ccccc2-c2cc(N3CCOCC3)nc3c(-c4ccn[nH]4)nccc23)cc1` [Example 345, 4-(biphenyl-2-yl)-2-(morpholin-4-yl)-8-(1H-pyrazol-5-yl)-1,7-naphthyridine], over 3 µM.
The same measure, in the same setting: the figure for `c1cc(-c2cc(N3CCOCC3)nc3c(-c4ccn[nH]4)nccc23)c2cccnc2c1` [Example 349, 2-(morpholin-4-yl)-8-(1H-pyrazol-5-yl)-4-(quinolin-5-yl)-1,7-naphthyridine] is over 3 µM.
The same measure, in the same setting: with `c1cncc(-c2cc(N3CCOCC3)nc3c(-c4ccn[nH]4)nccc23)c1` [Example 350, 2-(morpholin-4-yl)-8-(1H-pyrazol-5-yl)-4-(pyridin-3-yl)-1,7-naphthyridine] the figure was over 3 µM; with `COc1cc(-c2cc(N3CCOCC3)nc3c(-c4ccn[nH]4)nccc23)ccn1` [Example 351, 4-(2-methoxypyridin-4-yl)-2-(morpholin-4-yl)-8-(1H-pyrazol-5-yl)-1,7-naphthyridine], 3 µM.
